The test system of one data set is HepG2. As to the kind of experiment: Antiproliferative activity against human HepG2 cells treated for 72 hrs by MTT assay. The class given is functional, cell-based. The note with it: HepG2, 72 h. (In general: Formazan colour is commonly taken as a measure of viable cells.)
The test system of a further data set is HCCLM9. Description: Antiproliferative activity against human HCCLM9 cells treated for 72 hrs by MTT assay. The class given is functional, cell-based. To be noted: HCCLM9, 72 h.
Another data set relates to Huh-7. Description: Antiproliferative activity against human Huh-7 cells treated for 72 hrs by MTT assay. The class given is functional, cell-based. To be noted: Huh-7, 72 h.
For a further data set, the system named is SMMC-7721. Description: Antiproliferative activity against human SMMC-7721 cells treated for 72 hrs by MTT assay. To be noted: SMMC-7721, 72 h. The class given is functional, cell-based.
For a further data set, the system named is SK-HEP1. As to the kind of experiment: Antiproliferative activity against human SK-HEP1 cells treated for 72 hrs by MTT assay. To be noted: SK-HEP1, 72 h. Format: functional, cell-based.
The nature of data set [1]: Antiproliferative activity against human L02 cells treated for 72 hrs by MTT assay. The class given is toxicity, cell-based.
Data set [2] deals with DNA topoisomerase 2-alpha (Homo sapiens) (UniProt P11388). Description: Inhibition of human Top2-alpha expressed in baculovirus assessed as inhibition of relaxation of supercoiled pBR322 plasmid DNA at 100 uM incubated for 30 mins in presence of ATP by ethidium bromide staining based agarose gel electrophoresis analysis relative to control.
Data set [3] has as its target T1, DNA topoisomerase 1 (Homo sapiens) (UniProt P11387).
T1 sequence (whole entry): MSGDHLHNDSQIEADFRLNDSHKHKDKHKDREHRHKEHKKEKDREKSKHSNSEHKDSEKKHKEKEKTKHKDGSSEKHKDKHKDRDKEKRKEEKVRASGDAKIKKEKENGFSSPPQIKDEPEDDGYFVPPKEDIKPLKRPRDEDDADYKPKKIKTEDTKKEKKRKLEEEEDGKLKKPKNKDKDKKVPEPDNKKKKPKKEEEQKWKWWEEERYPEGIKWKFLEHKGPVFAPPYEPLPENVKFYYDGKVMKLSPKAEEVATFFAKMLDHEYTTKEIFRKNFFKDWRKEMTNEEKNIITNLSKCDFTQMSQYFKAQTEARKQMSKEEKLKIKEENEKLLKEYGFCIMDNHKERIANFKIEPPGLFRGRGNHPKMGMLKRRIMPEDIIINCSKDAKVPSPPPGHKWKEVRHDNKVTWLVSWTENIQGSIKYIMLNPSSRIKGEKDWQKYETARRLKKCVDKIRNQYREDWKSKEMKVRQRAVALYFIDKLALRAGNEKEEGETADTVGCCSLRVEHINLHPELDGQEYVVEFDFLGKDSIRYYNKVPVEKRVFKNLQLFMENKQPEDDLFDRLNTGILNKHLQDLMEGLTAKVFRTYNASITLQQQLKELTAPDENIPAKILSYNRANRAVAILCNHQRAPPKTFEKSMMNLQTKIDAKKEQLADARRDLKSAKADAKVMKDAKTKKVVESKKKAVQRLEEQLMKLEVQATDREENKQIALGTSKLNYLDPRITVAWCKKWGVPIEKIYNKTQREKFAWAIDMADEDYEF
Description: Inhibition of Top1 (unknown origin) assessed as inhibition of relaxation of supercoiled pBR322 plasmid DNA at 12.5 uM incubated for 25 mins by ethidium bromide staining based agarose gel electrophoresis analysis relative to control.

Data set [4] concerns the target T1, DNA topoisomerase 1 (Homo sapiens). Description: Inhibition of Top1 (unknown origin) assessed as inhibition of relaxation of supercoiled pBR322 plasmid DNA at 50 uM incubated for 25 mins by ethidium bromide staining based agarose gel electrophoresis analysis relative to control.

DNA topoisomerase 2-alpha (Homo sapiens), sequence (P11388 whole entry): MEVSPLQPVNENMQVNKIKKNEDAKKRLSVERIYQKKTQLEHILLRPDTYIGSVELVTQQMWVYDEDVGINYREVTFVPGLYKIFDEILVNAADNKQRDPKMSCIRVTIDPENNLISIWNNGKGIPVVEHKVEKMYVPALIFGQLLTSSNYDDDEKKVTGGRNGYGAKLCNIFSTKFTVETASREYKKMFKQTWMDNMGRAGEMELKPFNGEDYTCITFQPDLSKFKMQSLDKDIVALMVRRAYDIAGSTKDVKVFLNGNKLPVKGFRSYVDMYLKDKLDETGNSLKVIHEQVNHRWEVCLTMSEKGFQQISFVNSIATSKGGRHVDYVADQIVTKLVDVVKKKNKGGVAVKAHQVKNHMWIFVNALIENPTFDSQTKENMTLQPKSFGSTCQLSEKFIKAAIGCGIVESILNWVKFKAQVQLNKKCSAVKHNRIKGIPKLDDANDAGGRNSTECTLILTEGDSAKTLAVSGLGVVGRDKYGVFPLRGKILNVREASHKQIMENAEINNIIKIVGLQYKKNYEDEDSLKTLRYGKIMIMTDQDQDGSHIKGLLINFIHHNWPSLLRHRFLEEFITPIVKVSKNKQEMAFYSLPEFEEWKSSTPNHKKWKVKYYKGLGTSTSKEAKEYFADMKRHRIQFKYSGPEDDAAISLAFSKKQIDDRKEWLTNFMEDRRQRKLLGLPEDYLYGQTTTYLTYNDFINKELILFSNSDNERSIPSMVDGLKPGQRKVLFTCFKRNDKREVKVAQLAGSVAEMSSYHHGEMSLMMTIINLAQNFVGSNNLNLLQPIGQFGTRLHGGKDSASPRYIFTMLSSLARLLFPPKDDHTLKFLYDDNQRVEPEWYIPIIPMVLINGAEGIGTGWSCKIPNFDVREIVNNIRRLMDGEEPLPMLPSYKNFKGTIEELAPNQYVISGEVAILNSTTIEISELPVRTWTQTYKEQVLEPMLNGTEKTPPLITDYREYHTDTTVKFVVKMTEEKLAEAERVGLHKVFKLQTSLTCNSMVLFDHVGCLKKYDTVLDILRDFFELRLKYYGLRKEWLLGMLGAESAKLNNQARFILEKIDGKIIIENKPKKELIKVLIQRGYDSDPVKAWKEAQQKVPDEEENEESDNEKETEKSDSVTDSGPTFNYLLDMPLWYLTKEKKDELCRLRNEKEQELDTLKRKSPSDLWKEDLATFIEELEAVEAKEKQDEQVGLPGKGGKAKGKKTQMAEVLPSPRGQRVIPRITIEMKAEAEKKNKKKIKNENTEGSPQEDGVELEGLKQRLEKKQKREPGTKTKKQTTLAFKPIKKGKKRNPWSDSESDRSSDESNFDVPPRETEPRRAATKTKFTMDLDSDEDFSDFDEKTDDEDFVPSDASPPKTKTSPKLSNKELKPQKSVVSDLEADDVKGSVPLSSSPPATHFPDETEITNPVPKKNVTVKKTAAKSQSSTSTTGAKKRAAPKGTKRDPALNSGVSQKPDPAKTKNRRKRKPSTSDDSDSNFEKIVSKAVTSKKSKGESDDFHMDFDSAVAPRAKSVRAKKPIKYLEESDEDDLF

Broadly, the IC50 is the concentration needed to halve the response being measured. Read a high IC50 as a need for much substance. On to `COc1ccc2[nH]c3c(c2c1)CCN1C(=O)c2cc(F)c(F)cc2N(c2cccc(F)c2)C31` (configuration not stated), for which the IC50 in the data set on HepG2 amounted to 6.98 µM; with HCCLM9, 10.8 µM; in the data set on Huh-7 it was 7.69 µM; with SMMC-7721 it was 7.14 µM; in the data set with SK-HEP1, 7.21 µM. The compound further returned a half-maximal inhibitory concentration (IC50) at 72 h in [1] of over 6 µM.
Take `COc1ccc2[nH]c3c(c2c1)CCN1C(=O)c2cc(F)ccc2N(c2cc(F)cc(F)c2)C31` (configuration not stated): the IC50 in the data set with HepG2 was 2.91 µM; with HCCLM9 it was 6.34 µM; in the data set on Huh-7 it was 3.61 µM; with SMMC-7721, 2.97 µM; in the data set with SK-HEP1 it was 3.97 µM. The IC50 at 72 h in data set [1] was over 6 µM.
The term inhibition denotes the relative decrease from the control value, in per cent. On to `CCOc1ccc2[nH]c3c(c2c1)CCN1C(=O)c2cc(F)cc(F)c2N(c2cccc(F)c2)C31` (configuration not stated), for which the results for the inhibition in data set [2], in [3] and in data set [4] were 48.3%, 50.8% and 66.7%, respectively. Also, the IC50 in the data set with HepG2 came to 0.85 µM; with HCCLM9, 0.89 µM; in the data set with Huh-7 it was 0.6 µM; with SMMC-7721 it was 0.92 µM; in the data set on SK-HEP1, 1.34 µM. In [1], this compound returned an IC50 at 72 h of 1.8 µM.
For `COc1ccc2[nH]c3c(c2c1)CCN1C(=O)c2cc(F)ccc2N(c2ccc(Cl)c(F)c2)C31` (configuration not stated), the IC50 in the data set with HepG2 is 6.44 µM; in the data set with HCCLM9 it was 6.9 µM; in the data set with Huh-7, 7.68 µM; in the data set on SMMC-7721, 6.92 µM; in the data set on SK-HEP1, 8.9 µM. The compound also displayed an IC50 at 72 h in data set [1] of 2.69 µM.
As to `CC[C@@]1(O)C(=O)OCc2c1cc1n(c2=O)Cc2cc3ccccc3nc2-1`, the inhibition in [2] is 70.2%.
Turning to `COc1ccc2[nH]c3c(c2c1)CCN1C(=O)c2cc(F)cc(F)c2N(c2cccc(F)c2)C31` (configuration not stated), the inhibition in data set [2] came out at 65.2%; in data set [3] it was 20.1%; in data set [4], 48.4%. The IC50 in the data set on HepG2 is 0.27 µM; in the data set on HCCLM9, 39 µM; with Huh-7, 0.23 µM; in the data set with SMMC-7721 it was 0.35 µM; with SK-HEP1, 0.27 µM. For the same compound, the IC50 at 72 h in data set [1] came to 1.56 µM.
For the compound `COc1ccc2[nH]c3c(c2c1)CCN1C(=O)c2cc(F)ccc2N(c2cc(C)cc(F)c2)C31` (configuration not stated), the IC50 came out at 7.3 µM in the data set on HepG2; 12 µM in the data set on HCCLM9; 6.99 µM in the data set on Huh-7; 8.15 µM in the data set with SMMC-7721; 7.3 µM with SK-HEP1. The half-inhibitory concentration (IC50) at 72 h in data set [1] is over 6 µM.
Regarding `COc1ccc2[nH]c3c(c2c1)CCN1C(=O)c2cc(F)ccc2N(c2ccc(OC)c(F)c2)C31` (configuration not stated), the IC50 with HepG2 is 4.67 µM; in the data set with HCCLM9 it was 6.04 µM; with Huh-7, 4.32 µM; in the data set on SMMC-7721, 4.38 µM; in the data set with SK-HEP1 it was 4.55 µM. Further, the IC50 at 72 h in data set [1] was over 6 µM.
With `COc1ccc2[nH]c3c(c2c1)CCN1C(=O)c2cc(F)ccc2N(c2ccc(Br)c(F)c2)C31` (configuration not stated), the IC50 in the data set on HepG2 is 15.9 µM; in the data set on HCCLM9, over 18 µM; in the data set on Huh-7, over 18 µM; with SMMC-7721 it was over 18 µM; in the data set on SK-HEP1, over 18 µM. The same compound registered an IC50 at 72 h in data set [1] of over 6 µM.
Regarding `O=C1c2cc(F)cc(F)c2N(c2cccc(F)c2)C2c3[nH]c4ccccc4c3CCN12` (configuration not stated), the inhibition in data set [2] was 52.6%; in data set [3], 27.7%; in data set [4], 94.4%. The IC50 with HepG2 was determined as 0.39 µM; with HCCLM9, 0.28 µM; in the data set on Huh-7, 0.03 µM; in the data set on SMMC-7721 it was 0.27 µM; in the data set on SK-HEP1, 0.27 µM. The compound also had an IC50 at 72 h in data set [1] of 0.95 µM.
With `COc1ccc2[nH]c3c(c2c1)CCN1C(=O)c2cc(F)ccc2N(c2cc(F)cc(Cl)c2)C31` (configuration not stated), the IC50 in the data set on HepG2 was determined as 3.92 µM; in the data set on HCCLM9, 7.05 µM; in the data set with Huh-7, 4.87 µM; with SMMC-7721, 5.11 µM; in the data set with SK-HEP1, 5.01 µM. Half-maximal inhibition in data set [1] (IC50 at 72 h) was put at 5.44 µM.
Turning to `Cc1ccc2[nH]c3c(c2c1)CCN1C(=O)c2cc(F)cc(F)c2N(c2cccc(F)c2)C31` (configuration not stated), the inhibition in data set [2] is 67.6%; in data set [3] it was 7.29%; in [4] it was 83.7%. For the same compound, the IC50 in the data set with HepG2 was determined as 0.51 µM; in the data set with HCCLM9 it was 0.31 µM; in the data set on Huh-7 it was 0.02 µM; in the data set with SMMC-7721, 0.49 µM; in the data set on SK-HEP1 it was 0.48 µM. This compound also had an IC50 at 72 h in data set [1] of 1.4 µM.
As to `COc1ccc2[nH]c3c(c2c1)CCN1C(=O)c2cc(F)ccc2N(c2cc(F)ccc2Br)C31` (configuration not stated), the IC50 in the data set on HepG2 is 13.1 µM; in the data set on HCCLM9, over 18 µM; with Huh-7, 11.4 µM; with SMMC-7721 it was 13 µM; in the data set on SK-HEP1, 14.7 µM. This compound showed an IC50 at 72 h in [1] of over 6 µM.
On to `COc1ccc2[nH]c3c(c2c1)CCN1C(=O)c2cc(F)ccc2N(c2cc(F)cc(Br)c2)C31` (configuration not stated), for which the IC50 was found to be 4.36 µM in the data set with HepG2, 7.75 µM in the data set on HCCLM9, 5.77 µM in the data set on SMMC-7721 and 4.21 µM with SK-HEP1. The same compound yielded an IC50 at 72 h in [1] of 5.97 µM.
For the compound `COc1ccc2[nH]c3c(c2c1)CCN1C(=O)c2cc(F)ccc2N(c2ccc(C)c(F)c2)C31` (configuration not stated), the IC50 in the data set on HepG2 stood at 4.62 µM; in the data set with HCCLM9, 6.62 µM; in the data set on Huh-7, 6.34 µM; in the data set on SMMC-7721, 5.9 µM; in the data set on SK-HEP1, 6.96 µM. The same compound displayed an IC50 at 72 h in data set [1] of over 6 µM.
On to `COc1ccc2[nH]c3c(c2c1)CCN1C(=O)c2cc(F)ccc2N(c2ccc(F)c(F)c2)C31` (configuration not stated), for which the IC50 in the data set on HepG2 was found to be 1.34 µM; with HCCLM9 it was 2.67 µM; in the data set on Huh-7 it was 1.19 µM; with SMMC-7721, 1.48 µM; with SK-HEP1 it was 1.35 µM. Further, the IC50 at 72 h in data set [1] was 3.46 µM.
Turning to `COc1cc(F)cc(N2c3ccc(F)cc3C(=O)N3CCc4c([nH]c5ccc(OC)cc45)C32)c1` (configuration not stated), the IC50 worked out at 2.91 µM in the data set with HepG2; 4.21 µM with HCCLM9; 3.66 µM with Huh-7; 3.98 µM in the data set on SMMC-7721; 3.15 µM in the data set with SK-HEP1. The compound also returned an IC50 at 72 h in data set [1] of 5.78 µM.
On to `COc1ccc2[nH]c3c(c2c1)CCN1C(=O)c2cc(F)ccc2N(c2cc(F)ccc2C)C31` (configuration not stated), for which the IC50 with HepG2 is 7.19 µM; in the data set on HCCLM9, over 18 µM; with Huh-7, 11.2 µM; in the data set on SMMC-7721, 9.18 µM; in the data set with SK-HEP1, 8.91 µM. For the same compound, in data set [1], the IC50 at 72 h is over 6 µM.
Consider `COc1ccc2[nH]c3c(c2c1)CCN1C(=O)c2cc(F)ccc2N(c2cc(F)ccc2Cl)C31` (configuration not stated), for which the IC50 in the data set with HepG2 is 8.71 µM; with HCCLM9 it was over 18 µM; in the data set with Huh-7, 11.5 µM; in the data set on SMMC-7721, 10.9 µM; in the data set on SK-HEP1 it was 16.5 µM. The compound also showed an IC50 at 72 h in data set [1] of over 6 µM.
For `COc1ccc2[nH]c3c(c2c1)CCN1C(=O)c2cc(F)ccc2N(c2cc(F)ccc2F)C31` (configuration not stated), the IC50 with HepG2 turned out to be 2.8 µM; in the data set on HCCLM9, 3.78 µM; with Huh-7, 7.75 µM; in the data set on SMMC-7721, 3.98 µM; with SK-HEP1, 5.78 µM. Besides, the IC50 at 72 h in data set [1] worked out at 4.67 µM.
Consider `COc1ccc2[nH]c3c(c2c1)CCN1C(=O)c2cc(F)ccc2N(c2cc(F)ccc2OC)C31` (configuration not stated), for which the IC50 with HepG2, in the data set with HCCLM9, in the data set with Huh-7, in the data set on SMMC-7721 and in the data set on SK-HEP1 was over 18 µM throughout. Also, in data set [1], the IC50 at 72 h is over 6 µM.

Values taken from ChEMBL document CHEMBL5154935, “Design, Synthesis, and Biological Evaluation of Novel Evodiamine Derivatives as Potential Antihepatocellular Carcinoma Agents” (J Med Chem, 2022).
